Measured values: patent US11492347B2 (ENYO PHARMA, priority 2018, dated 2022)

Legend:
[1] = system: H1N1 (influenza A/New Caledonia/20/99); test: microbe, parasite or virus in culture; type: cell-based; conditions: H1N1, A549, 48 h
Dengue = test: microbe, parasite or virus in culture; type: cell-based, DENV serotype 2 strain New Guinea C; conditions: Huh-7, 48 h
Zika = test: Antiviral effect in infected Huh7 cells, plaque assay on VeroE6; type: cell-based, ZIKV strain MR766; conditions: Zika virus, Huh-7, MOI of 0,1 pfu per cell, supernatants 48 h post infection
[2] = biological target: T1, CISD1 Gene Product (mitoNEET) (Homo sapiens, UniProt Q9NZ45); test: Stability of Fe-S cluster binding of purified NEET protein (absorbance 458 nm); type: biochemical; conditions: for Residual cluster bound at end of experiment (Percentage Absorbance 458 nm at time zero): pH 6, at 180 minutes, vehicle control 16%
T1 sequence (Q9NZ45 33-108 limits assumed): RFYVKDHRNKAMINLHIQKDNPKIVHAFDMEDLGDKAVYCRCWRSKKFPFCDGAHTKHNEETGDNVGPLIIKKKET
Experimental: (§1) The modulator effect on the NEET proteins encoded by human CISD1, CISD2, and CISD3 genes by the compounds of the invention has been tested and is reported below. Particularly, the biochemical function of the NEET proteins is measured by the stability of Fe—S cluster binding of the purified NEET proteins.
(§2) The Fe—S cluster binding capacity of NEET proteins is known to be coordinated by four amino-acids in a stretch of 16 (three Cysteine and one Histidine). As the lability of the Fe—S cluster of NEET proteins is sensitive to the environment, cluster stability measurements are one of the measures of interactions of NEET proteins with small molecules and compounds. NEET protein/2Fe-2S cluster stability can be assessed by monitoring the decay in absorbance of its characteristic 458-nm peak (characteristic of the oxidized 2Fe-2S cluster) over time. Each NEET protein (mitoNEET, NAF-1 and Miner 2) was tested for its Fe—S binding in the absence or presence of a compound according to the invention (see table 4 below). The rate of cluster release (time in minutes to achieve 50% loss of bound Fe—S cluster) was compared for each NEET protein in the presence of one of the compounds of the invention (in a 1:3 protein:compound molar ratio) relative to each protein alone.
(§3) At pH 6, all the three NEET proteins (mitoNEET, NAF-1 and Miner 2) have a characteristic rate of loss of the bound Fe—S cluster that can be measured by the decrease of absorbance at wavelength 458 nm over time, using a spectrophotometer. Thus, Bis-Tris buffer (100 mM Bis-Tris pH6, 100 mM Nacl) was used at pH 6 to dilute either DMSO (Blank sample: Bis-Tris Buffer pH 6, 66 μM DMSO), DMSO and one of the three NEET proteins (Control sample: Bis-Tris Buffer pH 6, 66 μM DMSO, 20 μM purified NEET protein) or DMSO, one of the three NEET proteins and a compound of the invention (Test sample: Bis-Tris Buffer pH 6, 66 μM DMSO, 20 μM purified NEET protein, 60 μM compound of the invention).
(§4) A reaction mix containing DMSO diluted in the Bis-Tris Buffer with or without a compound of the invention was prepared. The purified NEET protein was the last component added to the reaction mix which was then aliquoted into 4 replicates in 96 wells plates. The absorbance at wavelength 458 nm was taken at 5 minutes intervals at 37° C. with a spectrofluorimeter. The assay run time for CISD2 gene product (NAF-1) was 500 minutes and 180 minutes for both the CISD1gene product (mitoNEET) and the CISD3 gene product (Miner2).
(§5) In addition to time monitoring, residual bound Fe—S cluster to NEET protein was measured at the final point of the spectrometry assay for each Test sample and compared to the Control sample data (in parenthesis table 4). This residual binding is measured by the differential percentage between the absorbance 458 nm at time zero and the absorbance 458 nm at the end of the experiment (i.e. respectively 500 or 180 minutes as described here above), showing the percentage of NEET protein still able to bind a Fe—S cluster.
(§6) Analysis of the absorbance enables the time for which 50% loss of bound Fe—S cluster is reached (i.e. a 50% absorbance decrease at 458 nm) for each Test sample and each Control sample (in parenthesis table 4) to be determined. The data are then compared to determine whether the compound of the invention stabilizes or destabilizes the NEET protein/Fe—S cluster binding.

[3] = biological target: T2, CISD3 Gene Product (Miner2) (Homo sapiens, UniProt P0C7P0); test: as above; type: biochemical; conditions: for Residual cluster bound at end of experiment (Percentage Absorbance 458 nm at time zero): CISD3 gene product 20 μM, pH 6, at 180 minutes, vehicle control 11%
T2 sequence (P0C7P0 15-127): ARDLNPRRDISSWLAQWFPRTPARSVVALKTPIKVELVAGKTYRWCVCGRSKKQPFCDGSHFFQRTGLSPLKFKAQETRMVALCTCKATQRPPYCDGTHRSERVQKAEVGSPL
Experimental: as §1, §2, §3, §4, §5, §6

[4] = biological target: T3, CISD2 Gene Product (NAF-1) (Homo sapiens, UniProt Q8N5K1); test: as above; type: biochemical; conditions: for Time (in minutes) to achieve 50% loss of bound cluster (Absorbance 458 nm) / Residual cluster bound at end of experiment (Percentage Absorbance 458 nm at time zero): NAF-1 20 μM, compound 60 μM; for Time (in minutes) to achieve 50% loss of bound cluster (Absorbance 458 nm): pH 6, 37° C., run time 500 minutes, vehicle control 310 or 210; for Residual cluster bound at end of experiment (Percentage Absorbance 458 nm at time zero): pH 6, at 500 minutes, vehicle control 3%
T3 sequence (Q8N5K1 57-135 limits assumed): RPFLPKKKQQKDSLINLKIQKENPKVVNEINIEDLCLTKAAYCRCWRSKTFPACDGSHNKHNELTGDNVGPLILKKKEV
Experimental: as §1, §2, §3, §4, §5, §6

West Nile Virus = test: Antiviral effect in infected Huh7 cells, plaque assay on VeroE6; type: cell-based, WNV stain New-York 99; conditions: Huh-7, MOI of 0,1 pfu per cell, supernatants 48 h post infection
Experimental: Compound #18 was tested on other viruses. The NEET protein modulators are capable of inhibiting other viruses such as West Nile Virus, Dengue and Zika with a high efficiency.
Assays were performed with the following strains/serotypes: • DENV serotype 2 strain New Guinea C • ZIKV strain MR766 • WNV stain New-York 99
1×10^5 Huh7 cells were infected with DENV, ZIKV, or WNV at a MOI of 0,1 pfu per cell in presence of the test compound. Two hours post-infection the inoculum was removed and cells washed twice with PBS 1×. Fresh medium containing the test compound was added. Supernatants were harvested 48 h post infection, filtered through a 0.45 μm pore membrane and directly used for plaque assays.
VeroE6 cells were infected with serial dilutions of virus supernatants. Two hours post-infection inoculum was replaced by serum-free MEM medium (Gibco, Life Technologies) containing 1.5% carboxymethyl cellulose (Sigma-Aldrich). At different days post infection (day 3 for WNV, day 4 for ZIKV, day 7 for DENV) cells were fixed by addition of formaldehyde to a final concentration of 5%. Cells were stained with crystal violet solution (1% crystal violet, 10% ethanol in H2O) for 30 min at room temperature and extensively rinsed with H2O. Infectious titers were calculated considering the corresponding dilution factor.

UXF 1138 = test: Cytotoxicity, propidium iodide based monolayer assay; type: cell-based; conditions: 96 h; UXF 1138 uterine sarcoma, four days of treatment, T/C=50%; read-out: Absolute IC50
Experimental: (§7) The cytotoxicity was tested for compounds of the invention on five different cell-lines, namely LXFL 1121, MAXF 401, MMXF L-636, PRXF PC-3M and UXF 1138 which are respectively lung large cell carcinoma, breast adeno carcinoma, multiple myeloma, prostate adeno carcinoma and uterine sarcoma.
(§8) A working stock solution of the test compounds was prepared in DMSO at a concentration of 33 mM or 8.25 mM, and small aliquots were stored at −20° C. On each day of an experiment, a frozen aliquot of the working stock solution was thawed and stored at room temperature prior to and during treatment.
(§9) All liquid handling steps were performed using the Tecan Freedom EVO 200 platform. First, serial 2-fold dilutions of the 33 mM DMSO working stock solution were done in DMSO. The DMSO dilutions were then diluted 1:22 into cell culture medium in an intermediate dilution plate. Finally, 10 μl taken from the intermediate dilution plate were transferred to 140 μl/well of the final assay plate. Thus, the DMSO serial dilutions were diluted 1:330 with cell culture medium, and the DMSO concentration in the assay was 0.3% v/v.
(§10) Cell lines were routinely passaged once or twice weekly and maintained in culture for up to 20 passages. Most cell lines were grown at 37° C. in a humidified atmosphere with 5% CO2 in RPMI 1640 medium (25 mM HEPES, with L-glutamine, #FG1385, Biochrom, Berlin, Germany) supplemented with 10% (v/v) fetal calf serum (Sigma, Taufkirchen, Germany) and 0.05 mg/mL gentamicin (Life Technologies, Karlsruhe, Germany).
(§11) A modified propidium iodide (PI) based monolayer assay was used to assess the anti-cancer activity of the compounds. Briefly, cells were harvested from exponential phase cultures, counted and plated in 96 well flat-bottom microtiter plates at a cell density of 4,000 to 40,000 cells/well dependent on the cell line's growth rate. The individual seeding density for each cell line ensure exponential growth conditions over the whole or at least the bigger part of the treatment period. After a 24 h recovery period, to allow the cells to resume exponential growth, 10 μl of culture medium (6 control wells/cell line/plate) or of culture medium with test compounds were added. Compounds were applied at ten concentrations in 2-fold increments in duplicates up to 25 μM or 100 μM and treatment continued for four days. After four days of treatment, cells were next washed with 200 μl PBS to remove dead cells and debris, then 200 μl of a solution containing 7 μg/ml propidium iodide (PI) and 0.1% (v/v) Triton X-100 was added. After an incubation period of 1-2 hours at room temperature, fluorescence (FU) was measured using the Enspire Multimode Plate Reader (excitation λ=530 nm, emission k=620 nm) to quantify the amount of attached viable cells.
(§12) Drug effects were expressed in terms of the percentage of the fluorescence signal, obtained by comparison of the mean signal in the treated wells with the mean signal of the untreated controls (expressed by the test-versus-control value, T/C−value [%]):
(§13) [formula] IC values reported reflect the concentration of the test compound that achieves T/C=50%. Calculation was done by 4 parameter non-linear curve fit.

PRXF PC-3M = test: as above; type: cell-based; conditions: Homo sapiens, 96 h; PRXF PC-3M prostate adeno carcinoma, four days of treatment, T/C=50%; read-out: Absolute IC50
Experimental: as §7, §8, §9, §10, §11, §12, §13

MAXF 401 = test: as above; type: cell-based; conditions: Homo sapiens, MAXF401, 96 h; MAXF 401 breast adeno carcinoma, four days of treatment, T/C=50%; read-out: Absolute IC50
Experimental: as §7, §8, §9, §10, §11, §12, §13

LXFL 1121 = test: as above; conditions: 96 h; LXFL 1121 lung large cell carcinoma, four days of treatment, T/C=50%; read-out: Absolute IC50
Experimental: as §7, §8, §9
Cell lines were routinely passaged once or twice weekly and maintained in culture for up to 20 passages. […]
A modified propidium iodide (PI) based monolayer assay was used to assess the anti-cancer activity of the compounds. Briefly, cells were harvested from exponential phase cultures, counted and plated in 96 well flat-bottom microtiter plates at a cell density of 4,000 to 40,000 cells/well dependent on the cell line's growth rate. […] After an incubation period of 1-2 hours at room temperature, fluorescence (FU) was measured using the Enspire Multimode Plate Reader (excitation λ=530 nm, emission k=620 nm) to quantify the amount of attached viable cells.
Drug effects were expressed in terms of the percentage of the fluorescence signal, obtained by comparison of the mean signal in the treated wells with the mean signal of the untreated controls (expressed by the test-versus-control value, T/C−value [%]): […]

[5] = time to 50% cluster loss changed by more than 25% compared to the Control sample, at the concentrations tested

Compound	IC50 [1] [nM]	IC50 (Dengue) [nM]	IC50 (Zika) [nM]	Residual cluster bound at end of experiment (Percentage Absorbance 458 nm at time zero) ([2]; mitoNEET 20 μM, compound 60 μM)	Stabiliser or destabiliser of Fe-S cluster binding by CISD1 Gene Product (mitoNEET) [2, 5]	Residual cluster bound at end of experiment (Percentage Absorbance 458 nm at time zero) ([3]; compound 60 μM)	Stabiliser or destabiliser of Fe-S cluster binding by CISD3 Gene Product (Miner2) [3, 5]	Time (in minutes) to achieve 50% loss of bound cluster (Absorbance 458 nm) [4]	Residual cluster bound at end of experiment (Percentage Absorbance 458 nm at time zero) [4]	IC50 (West Nile Virus) [nM]	IC50 (UXF 1138) [nM]	IC50 (PRXF PC-3M) [nM]	IC50 (MAXF 401) [nM]	IC50 (LXFL 1121) [nM]	Time (in minutes) to achieve 50% loss of bound cluster (Absorbance 458 nm) ([2]; mitoNEET 20 μM, compound 60 μM, pH 6, 37° C., run time 180 minutes, vehicle control 80)	Time (in minutes) to achieve 50% loss of bound cluster (Absorbance 458 nm) ([3]; Miner2 20 μM, compound 60 μM, pH 6, 37° C., run time 180 minutes, vehicle control 60)	Stabiliser or destabiliser of Fe-S cluster binding by CISD2 Gene Product (NAF-1) [4, 5]
COc1ccc(C(=O)Nc2sc3c(c2C(=O)O)CCC(C)(C)C3)cc1OC [Compound #18, 2-[(3,4-Dimethoxybenzoyl)amino]-6,6-dimethyl-5,7-dihydro-4H-benzothiophene-3-carboxylic acid]	50	5000	3000	62% (16%)	stabilisers	70% (11%)	Stabilisers	425 (310) minutes	42% (3%)	2500	–	–	–	–	–	–	–
CC1(C)CCc2c(sc(NC(=O)c3ccc(N4CCOCC4)cc3)c2C(=O)O)C1 [Compound #22, 6,6-Dimethyl-2-[(4-morpholinobenzoyl)amino]-5,7-dihydro-4H-benzothiophene-3-carboxylic acid]	120	–	–	–	–	–	–	–	–	–	332	705	539	546	–	–	–
CC1(C)Cc2c(sc(NC(=O)c3ccc(NC4CCOCC4)cc3)c2C(=O)O)C(C)(C)C1 [Compound #35, 5,5,7,7-Tetramethyl-2-[[4-(tetrahydropyran-4-ylamino)benzoyl]amino]-4,6-dihydrobenzothiophene-3-carboxylic acid]	16.8	–	–	26% (16%)	–	20% (11%)	–	220 (310) minutes	13% (3%)	–	743	702	–	–	85 (80) minutes	50 (60) minutes	destabilisers
